The values that follow come from patent US20240382509A1, “Cannabinoids C- and O-glycosides possessing anti-proliferative and anti-metastatic properties and process for preparation thereof” (Council of Scientific and Industrial Research, priority 2021, published 2024).

As a reminder, the IC50 is the concentration at which inhibition is half-maximal.

Data set [1] concerns MIAPaCa-2 cells. Put plainly: In-situ gelatin degradation assay, MIAPaCa-2. The class given is cell-based, human. Particulars: MIAPaCa-2, from 0.5 μM onwards, 36 h. As to the method:
Matrix gelatin degradation assay. In-situ gelatin degradation assay is performed to detect the formation of migratory structures (invadopodia & filopodia). Briefly, glass coverslips were coated with gelatin tagged with FITC, and the coated coverslips were dipped into 70% ethanol and immersed into a 6 well plate filled with RPMI and the coverslips were kept in a CO2 incubator for 1-2 h for preconditioning. Later on, both MIAPaCa-2 and MDA-MB-231 cells were seeded onto the coverslips and kept overnight for attachment. Treatment of the compound 2a (0.5, 1.5, 3 & 5 μM) was given on the next day and continued for 36 h. Upon termination, the coverslips were washed with ice-cold PBS, and then it was fixed in 4% paraformaldehyde for 15 min and then washed with PBS. Finally, the coverslips were mounted using mounting media consist of glycerol, and the edges were sealed with nail polish. After drying, the slides were observed under a fluorescence microscope to assess a degraded area's presence. The fluorescent images were captured, and the images were further processed in Image J software (Version 1.50i) to quantify the degraded area in each field.
Now this particular derivative was further analysed for its ability to inhibit the molecular signatures of EMT. […]

Data set [2] deals with MCF-7 cells. Put plainly: MTT cell viability assay, MCF-7. Format: cell-based. Particulars: Homo sapiens, MCF7, 48 h, read-out: Cytotoxicity (IC50) MCF-7, MTT, 48 h; breast cancer cell of epithelial origin. As to the method:
(§1) Cell viability assay: The cell viability was determined by the standard MTT assay method. Briefly, Panc-1, HCT-116, A549, PC3, MIAPaca-2, HT-29, MDA-MB-231, MCF7 cells, and fR2cells were seeded in 96 well tissue culture plates (Nunc) at a density of 4×10^3 cells per well and treated with varying concentrations of the test compounds in triplicates. DMSO was taken as a vehicle, and its final concentration was maintained at 0.2% in the culture medium. Doxorubicin was employed as a positive control. After 44 h of incubation, MTT dye solution was added into the medium, and cells were incubated for another 4 h at 37° C. in 5% CO2. The amount of colored formazan derivatives formed was measured by taking optical density (OD) using a microplate reader (TECAN, Infinite M200 Pro) at 570 nm, and the percentage of cell viability was calculated. The IC50 values were calculated using GraphPad Prism software (Version 5.0).

Data set [3] has as its system MIAPaCa-2 cells. Put plainly: MTT cell viability assay, MIAPaCa-2. Format: cell-based, human. Conditions: Homo sapiens, MIA PaCa-2, 48 h, read-out: Cytotoxicity (IC50) MIAPaCa-2, MTT, 48 h. As to the method: as §1
Data set [4] relates to MIAPaCa-2 cells. Put plainly: Matrigel invasion assay, MIAPaCa-2. Format: cell-based, human. Particulars: MIAPaCa-2, from 0.5 μM (0.5-5 μM), 36 h. The procedure: Matrigel invasion assay: MIAPaCa-2 and MDA-MB-231 cells (1×10^6) were seeded onto matrigel coated inserts and treated with compound 2a (0.5, 1.5, 3 & 5 μM) for 36 h in 5% CO2 incubator at 37° C. The upper chamber is filled with serum-free media, and the lower half consists of 10% FBS supplemented media, thus creating a gradient of chemoattractant that facilitates the migration of cells. Upon termination, the inserts were washed with PBS, and the non-migratory cells were removed from the upper chamber by using a cotton plug. Further, the cells were fixed with methanol and stained later with 0.2% crystal violet. After drying, the inserts were observed under an inverted microscope at 20× magnification, and images were taken.
Now this particular derivative was further analysed for its ability to inhibit the molecular signatures of EMT. To this end, MIAPaCa-2 cells were treated with 0.5 μM, 1.5 μM, 3 μM and 5 μM of compound 2a for 36 h and were subjected to immunoblotting to study the expression of Snail-1, Twist-1, Vimentin and E-cadherin. […] To analyse more deeply the ability of this compound to affect migration/metastasis, MIAPaCa-2 cells were seeded onto Matrigel coated inserts and were treated with 0.5 μM, 1.5 μM, 3 μM and 5 μM of compound 2a. […] Formation of invadopodia and filopodia (migratory structures) constitutes the fundamental property of cells undergoing migration. […]

Data set [5] relates to γH2AX, RAD-51, BCL-2, Bax, caspase-3 in HCT-116 cells. As to the kind of experiment: Immunoblot after combinatorial treatment of 5FU and compound 2a. Format: cell-based. From the text:
The effect of the compound 2a in combination with DNA damaging drug 5-Fluorouracil in colon adenocarcinoma cells was studied. […] Consequently, the major repair factor RAD-51 got diminished as compared to 5FU alone treated lane. The immunoblot results also depicted the downmodulation of cellular survival factor BCL-2 and subsequent upregulation of proapoptotic protein Bax (FIG. 8a). […] Moreover, the effect of the combinatorial treatment on chromosomal stability in HCT-116 cells by chromosome isolation and staining was studied.
The DNA damaging effect of compound 2a in combination with subtoxic doses of 5FU was further analyzed by Annexin/PI staining to check the activation of programmed cell death. […] Cumulatively, compound 2a elevated the DNA damaging effect and eventually leads to programmed cell death in combination with subtoxic doses of 5FU (FIG. 9b).
Background: Immunoblotting shows a protein as a band on a membrane.

For data set [6], the system named is PC3 cells. Put plainly: MTT cell viability assay, PC3. Format: cell-based. Particulars: Homo sapiens, PC-3, 48 h, read-out: Cytotoxicity (IC50) PC3, MTT, 48 h. As to the method: as §1
(Tetrazolium assays rely on reduction of a dye to a coloured formazan, in cell work by metabolically active cells.)

The test system of data set [7] is lung adenocarcinoma cells (A549). As to the kind of experiment: MTT cell viability assay, A549. Conditions: Homo sapiens, A549, 48 h, read-out: Cytotoxicity (IC50) A549, MTT, 48 h. The class given is cell-based. The procedure:
as §1

Data set [8] deals with MIAPaCa-2 cells. Put plainly: Cell scatter assay. The class given is cell-based, human. Particulars: MIAPaCa-2, 1, 2, 3 μM, 36 h, compared to vehicle and parent molecule. The procedure:
Cell scatter assay MIAPaCa-2 cells were seeded onto a 12 well plate at a seeding density of 500 cells/well and kept for 4-5 days, and there was the formation of scatter colonies since the cell line itself is a metastatic cell line. Accordingly, they were treated with 1 μM, 2 μM & 3 μM of compound 2, 2a, 2b, 3, 3a, 4, 4a & 4b for 36 h, and upon termination, they were washed with PBS and observed under an inverted microscope at 20× magnification (FIG. 3).

Data set [9] relates to fR2 cells. Put plainly: MTT cell viability assay, fR2 normal epithelial cells. Format: cell-based, human. Conditions: in vitro. As to the method:
as §1

Setting [10] is: HCT-116, 2a in combination with 5FU.

Regarding `CCCCCc1cc(O[C@@H]2OC(CO)[C@@H](O)C(O)C2O)c2c(c1)OC(C)(C)[C@@H]1CCC(C)=C[C@@H]21` (stereo partly drawn) [Compound 2a, Δ^9-tetrahydrocannabinol-1-O-β-D-glucopyranoside], the gelatin degraded area entry in data set [1] was “significant loss of gelatin degraded area”. Moreover, the IC50 in data set [2] stood at 15.4 µM; in data set [3], 1.42 µM; in [6], 7.17 µM; in data set [7], 1.44 µM. Moreover, in [4], the “cellular invasion, Matrigel” value is “inhibition of cellular invasion”. Further, the caspase-3 cleavage result in data set [5] (HCT-116, 2a in association with 5FU, 48 and 60 h) is listed as “incite caspase-3 cleavage”. Besides, the BCL-2 survival factor entry in [5] (setting [10]) is on record as “downmodulation”. Moreover, in data set [5] (setting [10]), the “proapoptotic protein Bax” value is reported as “upregulation”. In addition, the “expression of γH2AX protein (immunoblot)” value in data set [5] (HCT-116, 2a in combination with 5FU, 36 and 48 h) was “enhanced expression”. Further, the RAD-51 repair factor entry in data set [5] (HCT-116, 2a in combination with 5FU, compared to 5FU alone) is “diminished”. Besides, in data set [8], the cell scattering entry is “typical clumping of scatter cells”. For the same compound, the “toxicity towards normal human breast epithelial cells” value in data set [9] is on record as “non-toxic”.
